From US20250082584A1, “TRANSDERMAL THERAPEUTIC SYSTEM FOR THE TRANSDERMAL ADMINISTRATION OF SELEXIPAG” (LTS LOHMANN THERAPIE-SYSTEME AG, priority 2022, published 2025) come the findings set out here.

The data set can be described thus: Permeation of Selexipag and active metabolite MRE-269 through fresh human skin in modified Keshary-Chien diffusion cells. Format: in vitro ADME. The method, then: For determination of Selexipag and the Selexipag derived active metabolite MRE-269 permeated from fresh human skin tissue the following experiment was performed.
Modified Keshary-Chien diffusion cells were used for this experiment, in which fresh human skin was used as barrier between the donor and the acceptor part. The acceptor compartment contained the acceptor medium (0.9% NaCl+3% Vanillin+0.5% Methyl-β-cyclodextrin+30% Acetonitrile in aqua purificata), the donor chamber contained a liquid solution of Selexipag in oleic acid, dipropylene glycol, ethanol and aqua purificata. The liquid solution Composition 1 was applied as suspension, with undissolved Selexipag, whereas Composition 2 was centrifuged prior to application and only the clear centrifugate was applied. The composition of the selexipag-containing coating Compositions 1 and 2 of are summarized below.
Fresh human skin from plastic surgery was used (upper arm, person). […]
The samples of acceptor solution were filtrated with syringe filters and analyzed with HPLC. Quantification of Selexipag was performed with an external standard. […]
After 168 hrs of permeation the diffusion cells were dismantled, and the skin was rinsed with aqua purificata to remove residuals of the liquid solutions. […] The extracts were then diluted with acceptor medium, filtrated and analyzed with HPLC analogue to the permeation samples.

SMILES strings stand for the structures.

On to `CC(C)N(CCCCOCC(=O)O)c1cnc(-c2ccccc2)c(-c2ccccc2)n1` [MRE-269], for which, where the note is “fresh human skin, acceptor medium, cumulative data”, the “Onset of release of MRE-269 compared to Selexipag in acceptor medium (FIG. 7 vs FIG. 8)” value was “starts slower”. For the same molecule, where the note is “liquid Selexipag solutions (Compositions 1 and 2) on fresh human skin, 500 μm, 32° C., sampling 24-48-120-144-168 hrs, HPLC”, the “Detection of active metabolite MRE-269 in permeation samples and skin extraction samples” value was “detected at each sampling timepoint in all permeation samples as well as in the skin extraction samples”.
